Results taken from PubChem BioAssay (NCI).
Values joined by “and” are separate entries in the source; they are usually repeats but may differ in a detail not shown here. Equal values may be shown once.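 Step 1: Grow cells in 96-well plates. Step 2: Expose to compound for 48 hours at 5 concentrations. Step 3: Interpolate endpoints linearly; if unreached, use highest concentration. GI50 is the concentration that inhibits growth by half. At the TGI there is no net growth.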 Where a SMILES comes first, the peptide text is derived from it. The star is where a group is joined. Cbz = O=C(OCc1ccccc1)*

Key:
Assay in all cases: inhibition of tumour cell growth, NCI panel, 48 h
[1] = test system: IGROV1 ovarian
[2] = test system: A498 renal
[3] = test system: HOP-92 NSCLC
[4] = test system: KM12 colon
[5] = test system: OVCAR-5 ovarian
[6] = test system: MALME-3M melanoma
[7] = test system: RPMI-8226 leukemia
[8] = test system: UO-31 renal
[9] = test system: SN12C renal
[10] = test system: UACC-257 melanoma
[11] = test system: SNB-75 CNS
[12] = test system: SF-295 CNS
[13] = test system: NCI-H23 lung
[14] = test system: CCRF-CEM leukemia

Compound	TGI [1]	TGI [2]	TGI [3]	TGI [4]	TGI [5]	TGI [6]	TGI [7]	TGI [8]	TGI [9]	TGI [10]	TGI [11]	TGI [12]	TGI [13]	TGI [14] [µM]	GI50 [2]	GI50 [3]	GI50 [9]	GI50 [10]	GI50 [11]	GI50 [13]
Clc1ccc(-c2nc3ccc(C45CC6CC(CC(C6)C4)C5)cc3[nH]2)cc1	> 100 µM	> 100 µM	> 95.3 µM	> 100 µM	> 100 µM	> 100 µM	> 100 µM	> 100 µM	> 100 µM	> 65.7 µM	> 100 µM	> 100 µM	> 100 µM	> 100						
O=C1CCc2cc3c(cc21)CC1(Cc2cc4c(cc2C1)CCCC4)C3	> 100 µM	> 100 µM	11.4 µM	> 100 µM	> 100 µM	> 100 µM	> 100 µM	> 100 µM	> 100 µM	> 100 µM	75.1 µM	> 100 µM	> 100 µM	> 100						
C/C1=C\CC/C(C)=C/C=C(/C(C)C)CC/C(C(=O)O)=C/CC1	> 100 µM	75.1 µM	> 100 µM	> 100 µM	> 100 µM	> 100 µM	62 µM	> 100 µM	> 100 µM	> 100 µM	> 100 µM	78.3 µM	> 100 µM	> 100						
CCCCCCCCCC1CC(=O)NCC(=O)NC(C(C)C)C(=O)NC(CC(C)C)C(=O)NC(C)C(=O)NC(C(C)C)C(=O)O1 (stereo unspecified)	> 100 µM	> 55.4 µM	41.9 µM	33.9 µM	> 64 µM	> 61.9 µM	> 86.8 µM	> 100 µM	80.2 µM	> 88 µM	18.2 µM	37 µM	42.2 µM	> 56.4						
C1=NCCNCCN=Cc2ccccc2OCc2cccc(n2)COc2ccccc21	> 100 µM	> 100 µM	> 100 µM	> 62.2 µM	> 100 µM	> 80.7 µM	> 54.1 µM	> 30.7 µM	> 100 µM	> 100 µM	> 31.2 µM	> 51.4 µM	> 52.9 µM	> 34.3						
O=C(OC(/C=C/c1ccccc1)P1(=O)N(Cc2ccccc2)[C@@H]2CCCC[C@H]2N1Cc1ccccc1)c1ccccc1 (stereo partly specified)	> 25.6 µM	> 100 µM	8.08 µM	> 100 µM	> 100 µM	> 75.5 µM	6.53 µM	68.6 µM	> 100 µM	> 54.7 µM	> 28.1 µM	> 100 µM	> 31.5 µM	7.88						
CN1CCN(CCCCN2c3ccccc3Sc3ccc(N=[N+]=[N-])cc32)CC1	23.3 µM	29.9 µM	12.3 µM	20.8 µM	22.8 µM	6.39 µM	5.61 µM	21.8 µM	26.1 µM	4.22 µM	16.2 µM	27.9 µM	35.7 µM	7.75						
Cc1ccc(S(=O)(=O)NC2=NS(=O)(=O)c3cc(C)c(Cl)cc3S2)cc1	> 100 µM	> 100 µM	> 100 µM	> 100 µM	> 100 µM	> 100 µM	> 100 µM	> 100 µM	> 100 µM	> 100 µM	> 100 µM	> 100 µM	> 100 µM							
Nc1nc(Cl)cc(NCCCCCCCCCCCCNc2cc(Cl)nc(N)n2)n1	> 100 µM	> 100 µM	19.3 µM	> 100 µM		> 100 µM	> 100 µM	> 100 µM	> 100 µM	> 100 µM	34 µM	32.7 µM	12.6 µM	> 100						
[O-]c1c[n+](CC[n+]2cc([O-])on2)no1	> 100 µM	> 100 µM	> 100 µM	> 100 µM	> 100 µM	> 100 µM	> 100 µM	> 100 µM	> 100 µM	> 100 µM	> 100 µM	> 100 µM	> 100 µM	> 100						
CCOC(=O)/C=C/c1c[nH]c(C(=O)OCC)c1	> 100 µM	> 100 µM	> 100 µM	> 100 µM	> 100 µM	> 100 µM	> 100 µM	> 100 µM	> 100 µM	> 100 µM	> 100 µM	> 100 µM	> 100 µM	> 100						
CCSC(=O)/C=C1\CN(C(=O)OC(C)(C)C)C1C(=O)OC(C)(C)C (stereo unspecified)	14.6 µM	23.9 µM	8.4 µM	12.3 µM	14.3 µM	4.42 µM	4.77 µM	10 µM	7.06 µM	8.91 µM	17.4 µM	25 µM	8.7 µM	3.97						
Cc1ccc(S(=O)(=O)c2c3[nH]c4ccccc4nc3n3c2nc2ccccc23)cc1	> 100 µM	> 100 µM	> 100 µM	> 100 µM	> 100 µM	> 100 µM	> 100 µM	> 100 µM	> 100 µM	> 100 µM	> 100 µM		> 100 µM	> 100						
COc1cc(C2c3cc4c(cc3[C@@H](NCCCN(C)C)[C@H]3COC(=O)C23)OCO4)cc(OC)c1O (stereo partly specified)	2.03 µM and 4.03 µM	0.327 µM and 0.696 µM	0.368 µM and 1.85 µM	2.26 µM and 3.61 µM	2.59 µM and 5.52 µM	1.07 µM and 1.44 µM	> 37.5 µM and 5.49 µM	1.1 µM and 1.72 µM	0.502 µM and 1.14 µM	7.25 µM and 10.3 µM	4.21 µM and 6.84 µM	0.632 µM and 1.42 µM	0.759 µM and 1.56 µM		0.0838 µM and 0.19 µM	0.0952 µM and 0.482 µM	0.117 µM and 0.333 µM	1.03 µM and 2.1 µM	0.393 µM and 0.838 µM	0.139 µM and 0.291 µM
COC(=O)CCC(C)C1CCC2C3CCC4CC5CCC4(C)C3(O5)C(Br)C(Br)C12C (stereo unspecified)	> 100 µM	> 100 µM	> 100 µM	> 100 µM	> 100 µM	> 100 µM	> 100 µM	> 100 µM	> 100 µM	> 100 µM	> 100 µM	> 100 µM	> 100 µM							
[C-]#[N+]C1(C(=O)OCC)CC1	> 100 µM	> 100 µM	> 100 µM		> 100 µM	> 100 µM	> 100 µM		> 100 µM	> 100 µM	> 100 µM	> 100 µM	> 100 µM	> 100						
ClCc1ccc2ccc3ccc(CCl)nc3c2n1	3.48 µM	22.4 µM	3.63 µM	2.32 µM	7.82 µM	3.69 µM	13.1 µM	3.21 µM		3.38 µM	5.83 µM	5.69 µM	7.88 µM	8.64						

Compound	TGI [1]	TGI [2]	TGI [3]	TGI [4]	TGI [5]	TGI [6]	TGI [7]	TGI [8]	TGI [9]	TGI [10]	TGI [11]	TGI [12]	TGI [13]	TGI [14] [µM]	GI50 [2]	GI50 [3]	GI50 [9]	GI50 [10]	GI50 [11]	GI50 [13]
COc1ccc2c(c1)CCCN1Cc3ccccc3CC21 (stereo unspecified)	> 100 µM	96.8 µM	> 100 µM	> 100 µM	> 100 µM	> 100 µM		> 100 µM	> 100 µM	> 100 µM	> 100 µM	> 100 µM	> 100 µM	> 100						
COC(=O)/C(=C\c1cn(C(C)=O)c2ccccc12)P(=O)(OC)OC	44.9 µM	31.4 µM	33.8 µM			52 µM	93.9 µM	26.1 µM	28 µM		26.4 µM	28.5 µM	30.2 µM	> 100						
O=C1c2ccccc2-c2c1c(-c1ccccc1)c1n2C2(C(=O)c3ccccc3C2=O)C2C(=O)N(c3ccccc3)C(=O)C12 (stereo unspecified)	> 100 µM	> 100 µM	73.7 µM	47.9 µM	> 100 µM	51.9 µM		79.3 µM	61.4 µM	> 100 µM	79.2 µM	> 100 µM	37.4 µM	60						
CC[N+]1(C)CCC(O)(/C=C/c2ccc(Cl)cc2)C(C(=O)/C=C/c2ccc(Cl)cc2)C1 (stereo unspecified)	> 22.4 µM	30.2 µM	9.11 µM	10.3 µM	> 53.7 µM	24.3 µM		20.2 µM	27.1 µM	> 52 µM	26.7 µM	37 µM	30.3 µM	3.85						
Clc1ccc(-c2nnc(C34CC5CC(CC(C5)C3)C4)o2)cc1	> 100 µM	> 100 µM	> 100 µM		> 100 µM	> 100 µM	> 100 µM	14.6 µM	> 100 µM	> 100 µM	> 100 µM	> 100 µM	> 100 µM	> 100						
CCN(CC)c1cccc2c1C1(O)CCC3(CC21)OCCCCO3 (stereo unspecified)	> 100 µM	> 100 µM		> 100 µM	> 100 µM	> 100 µM	> 100 µM	> 100 µM	> 100 µM	> 100 µM	> 100 µM	> 100 µM	> 100 µM	> 100						
Cc1ccc(CCCCCOc2ccc(C3=NCCO3)cc2)s1	> 100 µM	4.47 µM		> 100 µM	> 100 µM	> 100 µM	> 100 µM	> 100 µM	> 100 µM	> 100 µM	> 100 µM	> 100 µM	> 100 µM	> 100						
N/C(COc1ccc(Cl)cc1)=N\NC(=O)c1ccncc1	> 100 µM	> 100 µM	> 100 µM	> 100 µM	> 100 µM	> 100 µM	> 100 µM		> 100 µM	> 100 µM	85.2 µM	> 100 µM	> 100 µM	> 100						
Cc1cc(-c2nc3cc(O)ccc3s2)ccc1N	> 100 µM	61.7 µM	> 100 µM	66.6 µM	75.5 µM	> 100 µM		78.8 µM	74.2 µM	> 100 µM	95.5 µM	73.4 µM	> 100 µM	96.8						
O=C(CC(C(=O)c1cccs1)c1ccsc1)c1ccco1 (stereo unspecified)	> 100 µM	64 µM	> 100 µM	42.7 µM	> 100 µM		> 100 µM	59 µM	> 100 µM	> 100 µM	84.4 µM	> 100 µM	49.7 µM	50.1						
CCOC(=O)C(CC(=O)OC)NC(=O)C(CC(=O)OC)NC(=O)C(CC(=O)OC)NC(=O)C(CC(=O)OC)NC(=O)OCc1ccccc1 (stereo unspecified) (Cbz-D(OMe)D(OMe)D(OMe)D(OMe)-OEt; configuration not given here)	> 100 µM	> 100 µM	> 100 µM	> 100 µM	> 100 µM	> 100 µM	> 100 µM	> 100 µM	> 100 µM	> 100 µM	> 100 µM		> 100 µM							
O=Cc1ccc(-c2cccc([N+](=O)[O-])c2)s1	> 100 µM	53.4 µM	> 100 µM	> 100 µM	> 100 µM		> 100 µM	> 100 µM	> 100 µM	> 100 µM	> 100 µM	> 100 µM	> 100 µM	> 100						
COC(=O)C1(C)CCCC2(C)C3CCC4CC3(C=C4CO)CCC12 (stereo unspecified)	> 100 µM	> 100 µM	> 100 µM		> 100 µM	> 100 µM	48.6 µM	> 100 µM	60.7 µM	> 100 µM	> 100 µM	> 100 µM	> 100 µM	> 100						
CC(=O)c1cccc(NC(=O)C(=O)C(C(=O)c2ccccc2F)C2OC(=O)c3ccccc32)c1 (stereo unspecified)	> 100 µM	> 100 µM	> 100 µM	> 100 µM	> 100 µM		87.9 µM	> 100 µM	> 100 µM	> 100 µM	76.3 µM	> 100 µM	> 100 µM	49.6						
Cc1cc(N)ccc1C=O	> 100 µM	> 100 µM	> 100 µM	> 100 µM	> 100 µM	> 100 µM	> 100 µM	> 100 µM	> 100 µM	> 100 µM	> 100 µM		> 100 µM	> 100						
CSC(=S)OC1C(CO[Si](C)(C)C(C)(C)C)OC2OC(C)(C)OC21 (stereo unspecified)	53.6 µM	43.4 µM		30.4 µM	37.6 µM	32.4 µM	36.5 µM	32 µM	37.1 µM	34.8 µM	> 100 µM	32.2 µM	44.3 µM	34						
